# Source: patent US12377035B2, “Peptides for inhibiting cholinergic calcitonin gene-related peptide (CGRP) and acetylcholine (ACH) release or inhibiting sensitization-mediated by TRPV1-mediated excitability in sensory neurons and methods of use thereof” (AZIENDE CHIMICHE RIUNITE ANGELINI FRANCESCO—A.C.R.A.F. …, priority 2018, dated 2025)
# Like-named read-outs stand apart in the source and are kept apart here. Residues, ends and D or L forms follow the SMILES beside them. *: point of attachment. Palmitoyl = CCCCCCCCCCCCCCCC(=O)*
# How the values were obtained:
# [1] = system: acetylcholine release, human neuroblastoma cell line differentiated to cholinergic neuronal phenotype; experiment: Inhibition of KCl-induced acetylcholine release in a neuroblastoma cell line (Amplex Red); assay type: cell-based; conditions: 50 mM KCl
# Experimental: To determine the compound of the invention effects on acetylcholine release, a human neuroblastoma cell line (50.000 cells/well) was used. Cells were differentiated to cholinergic neuronal phenotype for 4 days. Then, cells were pre-incubated for 60 minutes with the compounds (between 0.1 and 100 μM) as acetyl- or palmitoyl-form and conjugated with trifluoroacetate (TFA) or acetate salt. Afterwards, acetylcholine release was induced by membrane depolarization evoked by 15 minutes incubation with 50 mM KCl. Acetylcholine level in supernatants was quantified by using Amplex® Red Acetylcholine Assay Kit (Thermofisher) following manufacturer's instructions. […] Fluorescence (Ex 530 nm/Em 590 nm) was measured in FluorStar equipment. Acetylcholine content was normalized to the total protein content using BCA assay (Pierce) following manufacturer's instructions. Fluorescence measurements were normalized to the maximum signal detected with KCl stimulation in vehicle treated cells. Vesicle exocytosis disruption by the compounds of the invention lead to a decrease of acetylcholine release (Table E).
# [2] = system: pilocarpine-induced sweating, C57BL6/Rcc male mice; experiment: Antiperspirant effect, chronic administration, pilocarpine-induced sweating mouse model; assay type: in vivo; conditions: during 4 weeks treatment, 100 μg/paw
# Experimental: This example evaluated chronic effects of peptide of invention SEQ ID NO: 1 pamitoylated form, in an in vivo sweating model. This model was established using pilocarpine, a non-selective agonist of muscarinic receptors, in 11-weeks old C57BL6/Rcc male mice. Test compound was locally administered three times per week for 4 weeks (Treatment). Sweat was induced by intraplantar (i.pl) injection of pilocarpine (3 μg/paw) in the right hind paw (Sweating) once on weeks 1, 2 and 4 according to table H.
# Test compound was injected i.pl. on the right hind paw (1, 10 and 100 μg), and vehicle was saline solution.
# Sweating was monitored through amylase activity detection on skin surface using iodine/starch reaction. Dark sweating drops were quantified after 5 minutes induction counting number of drops per paw in each condition. Sample n=5-6 individuals per group. Data are expressed as mean #standard error of the mean (SEM). Raw data was normalized as percentage respect to non-injected stimulated individuals (control, 100%). Statistical analysis was one-way ANOVA followed by Dunnett's post-hoc multiple comparison test comparing each condition with the corresponding control group, ****p<0.0001 ***p<0.001 **p<0.01, *p<0.05
# [3] = system: TRPV1-mediated excitability of sensory neurons (neonatal rat dorsal root ganglia); experiment: In vitro functional assay for neuronal sensitization (microelectrode array, capsaicin pulses); assay type: cell-based, Wistar rats; conditions: for % Sensitization inhibition: incubated 1 hour, 100 - ratio P3/P1
# Experimental: Isolated neonatal rat dorsal root ganglia from Wistar rats (3-5 days-old) were seeded microelectrode array chips in DMEM Glutamax, 10% FBS, 1% P/S supplemented with murine NGF. All experiments were performed after 48 h cell seeding.
# Sensory neurons were sensitized by acute exposure to pro-inflammatory cocktail with bradykinin, histamine and ATP. TRPV1-mediated excitability was analyzed as stinging, burning and itching sensations are mainly driven by TRPV1. Repetitive application of TRPV1-agonist capsaicin (15 s-application 500 nM) allowed first activation (P1) followed by desensitization (second application). Desensitized cultures were sensitized with the cocktail to recover excitability, using external solution between the second (P2) and the third (P3) capsaicin pulse (8 min). To confirm cell viability 40 mM KCl was applied at the end. Test compound was incubated 1 hour before monitoring at 0.1, 1 and 10 µM. Test compound is the peptide having the following sequence (SEQ ID NO: 1): Palm-HYWRELQYR-NH2
# Sensitization was calculated as ratio between P3 and P1 capsaicin pulse (ratio P3/P1), representing sensitized response induced by the pro-inflammatory cocktail. Inhibition percentage was calculated as 100-Sensitization. Data are expressed as mean±standard error of the mean (SEM), Statistical analysis was one-way ANOVA followed by Dunnett's post-hoc multiple comparison test comparing each condition with the corresponding sensitization control group, ****p<0.0001 ***p<0.001 **p<0.01, *p<0.05
# [4] = system: pilocarpine-induced sweating, C57BL6/Rcc male mice; conditions: acute, at 10, 30 and 100 μg
# Experimental: Test compound was injected intraplantar (i.pl.) on the right hind paw (10, 30 and 100 μg) 30 min before sweating stimulation. Vehicle was saline solution.
# Sweating was monitored through amylase activity detection on skin surface using iodine/starch reaction. Dark sweating drops were quantified after 5 minutes induction counting number of drops per paw in each condition. Sample n=5-6 individuals per group. Data are expressed as mean±standard error of the mean (SEM). Raw data was normalized as percentage respect to non-injected stimulated individuals (Control, 100%) and saline-injected non-stimulated individuals (Vehicle, 0%). Statistical analysis was one-way ANOVA followed by Dunnett's post-hoc multiple comparison test comparing each condition with the corresponding control group, ****p<0.0001 ***p<0.001 **p<0.01, *p<0.05
# [5] = system: CGRP induced-release on peptidergic sensory neurons (dorsal root ganglia); experiment: Inhibition of capsaicin-induced CGRP release on cultured sensory neurons (CGRP EIA); assay type: cell-based; conditions: 1 hour, 1 μM capsaicin 10 min
# Experimental: The induction of the release of calcitonin-gene related peptide (CGRP) with capsaicin enables direct measurement of neuronal exocytosis (Meng J. et al., J. Cell. Sci. (2007) 15; 120(Pt 16):2864-74, and Meng J. et al., Mol. Neurobiol. (2014); 50(2):574-88).
# The tested peptides were evaluated by measuring their capability of inhibiting CGRP induced-release on peptidergic sensory neurons. Dorsal root ganglia were seeded (50.000 cells/well) in a 96-well plate previously coated with poly-L-lysine and laminin. After 48 hours seeding, cells were incubated with Hank's Balanced salt solution containing peptides of invention at 20, 50 or 100 μM for 1 hour. Next, cells were stimulated for 10 min with 1 μM capsaicin at 37° C. Then, CGRP content was determined in supernatants using colorimetric based CGRP EIA (Spi-Bio Inc) following manufacturer's instructions. Absorbance measurements (405 nm) were standardized with regard to the maximum signal detected with capsaicin stimulation in vehicle treated cells. Inhibition values of CGRP release were calculated as percentages by considering maximum signal to capsaicin-induced release and minimum as non-stimulated cells. Table D details inhibition values of […] obtained for the peptides of invention.
# [6] = system: human epidermal keratinocytes (HEKa); experiment: MTT cell viability assay on epidermal keratinocytes; assay type: cell-based; conditions: for % inhibition cell viability: HEKa, 24 hours
# Experimental: (§1) This example evaluated effects of the peptides of invention on human epidermal keratinocytes and dermal fibroblasts. Cell viability was determined with the 3-(4,5-dimethyl-2-thiazolyl)-2,5-diphenyl-2H-tetrazolium bromide (MTT) assay. The MTT assay is a colorimetric reaction based on the capacity of the mitochondrial dehydrogenase enzyme to break and transform the tetrazolium rings of MTT. Epidermal keratinocytes (HEKa) were seeded in a previously coated 96 well-plate at 50-60% confluence in 100 μL of supplemented corresponding medium. Dermal fibroblasts (HDFa) were seeded in a 96 well-plate at 70% confluence in 100 μL supplemented medium. For both cell lines, 24 hours after seeding, medium was replaced by fresh supplemented medium containing peptides dissolved at concentration range between 0.1 and 200 μM. All test substances were incubated for 24 hours at 37° C. and 5% CO2. Afterwards, medium was replaced by 0.5 mg/ml of MTT solution for 4 hours in complete medium. Then, medium was carefully removed and 150 μL/well of DMSO were added to solubilize formazan crystals. Plate was protected from light, shaken for 60 seconds and optical density was measured at 570 nm with a reference filter of 620 nm. Table F details effects of peptides of invention on keratinocytes and fibroblasts cell viability expressed as percentage of inhibition.
# [7] = system: human dermal fibroblasts (HDFa); experiment: MTT cell viability assay on dermal fibroblasts; assay type: cell-based; conditions: for % inhibition cell viability: HDFa, 24 hours
# Experimental: as §1
compound,measurement,setting,value
"CCCCCCCCCCCCCCCC(=O)N[C@@H](Cc1c[nH]cn1)C(=O)N[C@@H](Cc1ccc(O)cc1)C(=O)N[C@@H](Cc1c[nH]c2ccccc12)C(=O)N[C@@H](CCCNC(=N)N)C(=O)N[C@@H](CCC(=O)O)C(=O)N[C@@H](CC(C)C)C(=O)N[C@@H](CCC(N)=O)C(=O)N[C@@H](Cc1ccc(O)cc1)C(=O)N[C@@H](CCCNC(=N)N)C(N)=O [SEQ ID NO: 1 palmitoyl, Palm-HYWRELQYR-NH2] (Palmitoyl-HYWRELQYR-NH2)",% Ach release inhibition,"[1]; Acetate salt, 0.1 μM",42.9%
same,% Ach release inhibition,"[1]; Acetate salt, 1 μM",81.3%
same,% Ach release inhibition,"[1]; Acetate salt, 10 μM",87.5%
same,% Ach release inhibition,"[1]; TFA salt, 5 μM",7.9%
same,% Ach release inhibition,"[1]; TFA salt, 10 μM",49.4%
same,% Ach release inhibition,"[1]; TFA salt, 50 μM",75.9%
same,effect on sweating (in words),[2],significant sweating inhibition
same,% Sensitization inhibition,[3]; 0.1 μM,69.7%
same,% Sensitization inhibition,[3]; 1 μM,51.2%
same,% Sensitization inhibition,[3]; 10 μM,59.7%
same,effect on sensitization process (in words),"[3]; at the three concentration (0.1, 1 and 10 µM)",significantly inhibited sensitization process with similar efficacy
same,effect on sweating (in words),[4],significantly reduced sweating
"Ac-LRVQMVNMFL-NH2 [SEQ ID NO: 4 acetyl, LRVQMVNMFL]",% CGRP release inhibition,[5]; peptide 20 μM,14.2%
same,% CGRP release inhibition,[5]; peptide 100 μM,77.4%
same,% Ach release inhibition,"[1]; Acetate salt, 0.1 μM",around 40%
same,% Ach release inhibition,"[1]; TFA salt, 10 μM",84.3%
same,% Ach release inhibition,"[1]; TFA salt, 50 μM",58.9%
same,% Ach release inhibition,"[1]; TFA salt, 100 μM",6.8%
same,% inhibition cell viability,[6]; 1 μM,13.6%
same,% inhibition cell viability,[6]; 5 μM,2.6%
same,% inhibition cell viability,[6]; 10 μM,6.0%
same,% inhibition cell viability,[6]; 50 μM,19.5%
same,% inhibition cell viability,[6]; 100 μM,31.6%
same,% inhibition cell viability,[6]; 200 μM,41.1%
same,effect on keratinocyte viability (in words),[6]; assessed below 50 μM,did not modify keratinocyte viability
same,% inhibition cell viability,[7]; 1 μM,14.5%
same,% inhibition cell viability,[7]; 5 μM,28.4%
same,% inhibition cell viability,[7]; 10 μM,37.1%
same,% inhibition cell viability,[7]; 50 μM,40.6%
same,% inhibition cell viability,[7]; 100 μM,41.5%
same,% inhibition cell viability,[7]; 200 μM,22.9%
"Ac-MQVWLRMWIDYRAT-NH2 [SEQ ID NO: 2 acetyl, MQVWLRMWIDYRAT]",% CGRP release inhibition,[5]; peptide 20 μM,49.3%
same,% CGRP release inhibition,[5]; peptide 100 μM,55.3%
same,% Ach release inhibition,"[1]; Acetate salt, 1 μM",41.0%
same,% Ach release inhibition,"[1]; Acetate salt, 10 μM",55.8%
same,% Ach release inhibition,"[1]; TFA salt, 5 μM",76.2%
same,% Ach release inhibition,"[1]; TFA salt, 10 μM",78.8%
same,% Ach release inhibition,"[1]; TFA salt, 20 μM",10.9%
same,% inhibition cell viability,[6]; 1 μM,−1.2%
same,% inhibition cell viability,[6]; 5 μM,−1.8%
same,% inhibition cell viability,[6]; 10 μM,−0.5%
same,% inhibition cell viability,[6]; 50 μM,−4.6%
same,% inhibition cell viability,[6]; 100 μM,−0.7%
same,% inhibition cell viability,[6]; 200 μM,1.2%
same,effect on cell viability (in words),"[6]; human epidermal keratinocytes, up to 200 μM",did not modify cell viability
same,% inhibition cell viability,[7]; 1 μM,10.1%
same,% inhibition cell viability,[7]; 5 μM,12.3%
same,% inhibition cell viability,[7]; 10 μM,8.5%
same,% inhibition cell viability,[7]; 50 μM,1.4%
same,% inhibition cell viability,[7]; 100 μM,7.8%
same,% inhibition cell viability,[7]; 200 μM,24.6%
same,effect on cell viability (in words),"[7]; dermal fibroblast, up to 200 μM",did not modify cell viability
